Data: patent publication US20120318262A1 (priority 2011, published 2012)

Legend:
[1] = test system: Wnt signaling; experiment: TOPflash reporter assay, HEK 293 STF cells treated with Wnt3a; format: cell-based
Method: Graph represents mean±s.e.m of TOPflash signal normalized to cell number (performed in quadruplicate). […] Data shown represent mean of four independent amplification reactions, graphed as relative expression to unstimulated cells. Expression levels were normalized to β-actin mRNA. Error bars, RQ values with 95% confidence.
CK1α immunoprecipitated from lysates was incubated with purified β-catenin (100 nM) in kinase assay containing (^γ32P)ATP. Samples were processed for SDS-PAGE/autoradiography. As control, immunoprecipitates were treated with the CK1 inhibitor, CKI-7 (1 μM). […] HA immunoprecipitates were analyzed by LCMS. Graph represents mean±s.e.m. of relative abundance of pyrvinium normalized to bead control (performed in triplicate). […] (FIG. 9C) Structure of VU-WS113. […] (FIG. 9F) CK1α (100 nM) was incubated with recombinant casein (100 nM) in the presence or absence of compounds in a kinase reaction containing [γ32P]ATP. […] Mean±s.e.m. is shown (performed in triplicates).

[2] = test system: C57Bl/6 mice; format: in vivo; settings: p<0.05
Excerpt: FIGS. 5A-D. Mouse MI model. Representative mouse EKG tracings pre (FIG. 5A) and post (FIG. 5B) coronary artery ligation. […] Arrows mark lateral and posterior left ventricle (LV). LVIDD, LVIDS=LV internal diameter at systole and […], respectively. RV=right ventricle. […] Cardiac dimensions were obtained from 2-D guided M-mode images (100 frames/sec) and were read blinded using short axis and a parasternal long-axis views with the leading edge method. All echo measurements were averaged over 3 consecutive beats on unsedated mice at 7 and 30 days after infarction. Statistical significance assessed by the Wilcoxon rank sum test.
Ventricular remodeling and cardiac functional parameters will be assessed by echo.
Mammalian cardiomyocytes irreversibly withdraw from the cell cycle soon after birth and undergo terminal differentiation. […] Therefore, cardiac injury causes permanent myocardial loss and cardiac dysfunction. […] Proliferation was assessed by immunostaining for Ki-67.

[3] = biological target: CK1α (Homo sapiens, UniProt P48729); experiment: kinase activity of purified recombinant CK1α (Tau, casein substrates; kinase panel); format: biochemical
Method: CK1α immunoprecipitated from lysates was incubated with purified β-catenin (100 nM) in kinase assay containing (^γ32P)ATP. Samples were processed for SDS-PAGE/autoradiography. As control, immunoprecipitates were treated with the CK1 inhibitor, CKI-7 (1 μM). […] HA immunoprecipitates were analyzed by LCMS. […] (FIG. 9C) Structure of VU-WS113. […] (FIG. 9F) CK1α (100 nM) was incubated with recombinant casein (100 nM) in the presence or absence of compounds in a kinase reaction containing [γ32P]ATP. […] Mean±s.e.m. is shown (performed in triplicates).

[4] = test system: C57Bl/6 mice; experiment: 2 mm ear punch wound model; format: in vivo; settings: day 30
Excerpt: (FIG. 8A) Low magnification (4×) view of H&E stained slide showing epithelial repair of wounded skin treated with 211 at 30 days after injury. […] (FIGS. 8C-D) represent H&E of low (10×) and high (20×) magnification view of pyrvinium-treated ears. (FIGS. 8E-F) Trichrome blue staining showing low (FIG. 8E, 10×) and high power (FIG. 8F, 20×) view of pyrvinium-repaired ear.
The ears of six month old C57BL/6 mice were wounded by a 2 mm ear punch (n=3). […] The wounds were monitored over a period of 1 month and the digital photographs of the healing ears were taken periodically. […] The mice were sacrificed at day 30 and histological analysis of the wounded ear was performed.
FIGS. 8C-D show H&E stained slide of low (10×) and high (20×) magnifications of pyrvinium-treated ears.

[5] = test system: C57Bl/6 mice; experiment: myocardial infarct model, daily IP injection, Ki67/Sca1 histology
Excerpt: Myocardial infarcts were induced in male C57Bl/6 mice by coronary ligation. A sham-injured cohort underwent all aspects of the procedure except ligation of the coronary artery. […] Mice were sacrificed (n=3 for each time point and each condition) on days 7, 9 and 15 after injury. Hearts were isolated for histologic analysis.

CK1α, sequence (P48729 whole entry): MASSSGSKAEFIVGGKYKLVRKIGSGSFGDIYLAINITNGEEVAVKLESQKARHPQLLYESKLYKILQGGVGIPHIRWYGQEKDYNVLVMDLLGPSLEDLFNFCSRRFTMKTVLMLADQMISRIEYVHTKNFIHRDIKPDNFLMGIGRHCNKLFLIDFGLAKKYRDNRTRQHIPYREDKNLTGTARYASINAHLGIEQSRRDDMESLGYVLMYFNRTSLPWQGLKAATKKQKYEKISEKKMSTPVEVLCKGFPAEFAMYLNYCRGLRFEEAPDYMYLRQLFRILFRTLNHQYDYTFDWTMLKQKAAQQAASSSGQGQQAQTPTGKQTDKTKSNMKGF

Row | SMILES | IC50 ([1]; Wnt3a-conditioned media, 24 hours, read-out: IC50 of TOPflash (Wnt signaling) inhibition) [µM] | average difference in fractional shortening between days 7 and 30 [2] | inhibition of TOPflash / Wnt signaling ([1]; Wnt3a) | activation of CK1α [3] | histology of wounded ear ([4]; listed as Cmpd 113) | histology of wounded ear ([4]; listed as compound 113) | Ki-67+ cells co-labeled with Sca1+ antibody ([5]; 40 μg/kg IP) | Sca1+ CPCs share of Wnt-inhibitor responsive population ([5]; 40 μg/kg IP) [%] | increase in left ventricular, peri-infarct Ki67+ cells ([5]; 40 μg/kg IP daily through day 6, 7-9 days after MI) | post-infarct proliferation of cardiac progenitors ([5]; 7 d after injury, control C-211)
1 | Cc1cc(/C=C/c2ccc3cc(N(C)C)ccc3[n+]2C)c(C)n1-c1ccccc1 [pyrvinium, 6-(Dimethylamino)-2-[2-(2,5-dimethyl-1-phenyl-1H-pyrrol-3-yl)ethenyl]-1-methylquinolinium, reference compound] | ~0.01 | 22.3±5.2 | – | – | – | – | – | – | – | –
2 | Cc1cc(C(=O)Nc2ccc3cc(CN4CCOCC4)ccc3n2)c(C)n1-c1ccccc1 [VU-WS113, 2,5-dimethyl-N-(6-(morpholinomethyl)quinolin-2-yl)-1-phenyl-1H-pyrrole-3-carboxamide] | – | – | retained the capacity to inhibit Wnt signaling | activate CK1α | injured hole was repaired | Injured hole was repaired | at least 50% | > 60 | 10-13 fold | significantly enhances post-infarct proliferation of cardiac progenitors
